Patent US8946201B2, “Methods for inhibiting TGF-β” (Saint Louis University, priority 2007, dated 2015)

Experiments:
[1] = tested on: TβR-I and TβR-II; assay: 125I-TGF-β1 affinity labeling, Mv1Lu cells; type: cell-based, mink; conditions: for effect on the LDL- or cholesterol-induced increase of 125I-TGF-β1 binding to TβR-I: co-treatment, β-CD 8 mM, nystatin 25 μg/ml, cholest-4-en-3-one 50 μg/ml (FIG. 4B, C)
Procedure: (A) Mv1Lu cells were treated with 50 μg/ml cholesterol at 37° C. After several time periods, as indicated, ^125I-TGF-β1-affinity labeling was performed at 0° C. ^125I-TGF-β1 affinity-labeled TGF-β receptors were analyzed by 7.5% SDS-PAGE and autoradiography (a) and quantified with a PhosphoImager. The bracket indicates the locations of ^125I-TGF-β1 affinity-labeled TβR-I and TβR-II. The ratio of ^125I-TGF-β1 binding to TβR-II and TβR-I is plotted against incubation time (b).
(B, C, D, E) Cells were treated with increasing concentrations of cholesterol in the presence (C) and absence (B, D, E) of 0.2% β-CD, as indicated. After 1 hr at 37° C., ^125I-TGF-β1 affinity labeling of TβR-I and TβR-II in cells was performed at 0° C. ^125I-TGF-β1 affinity-labeled TβR-I and TβR-II were analyzed by 7.5% SDS-PAGE and autoradiography or quantified with a PhosphoImager. A representative of a total of three analyses is shown (top). The bracket indicates the locations of ^125I-TGF-β affinity-labeled TβR-I and TβR-II. The relative intensities of ^125I-TGF-β1 affinity-labeled TβR-I and TβR-II in cells treated without cholesterol were taken as 100%. The quantitative data from three analyses is shown (bottom).
The bracket indicates the locations of ^125I-TGF-β1 affinity-labeled TβR-I and TβR-II. The relative intensities of ^125I-TGF-β1-TβR-I and ^125I-TGF-β1-TβR-II complexes, which were quantified with a PhosphoImager, are plotted against TGF-β1 concentrations (bottom).
(A, B, C, D, E, F) Cells were treated with LDL (50 μg protein/ml), VLDL (5 μg protein/ml), HDL (50 μg protein/ml), lipoprotein (a) (10 μg/ml), fluvastatin (F; 1 μM), lovastatin (L; 1 μM), nystatin (Nys; 25 μg/ml), β-CD (β-CD; 8 mM), cholest-4-en-3-one (3-one; 50 μg/ml) or cholesterol (Chol; 50 μg/ml) alone or combination of two. After 1 hr at 37° C. or 16 hr at 37° C. (for fluvastatin and lovastatin), ^125I-TGF-β1 affinity labeling of cell-surface TGF-β receptors was performed at 0° C. ^125I-TGF-β1 affinity-labeled TβR-I and TβR-II were analyzed by 7.5% SDS-PAGE and autoradiography. The relative intensities of TβR-I and TβR-II were quantified with a PhosphoImager. The ratio of ^125I-TGF-β1 binding to TβR-II and TβR-I were estimated. The numbers above the lane sequence denote the ratio of TβR-II/TβR-I.
(G) Mv1Lu cells were treated with 50 μg/ml of cholesterol and cholesterol analogs/derivatives including 25-hydroxycholesterol, 7-dehydrocholesterol (7-DHC), 7-ketocholesterol, 7β, 8β-epoxycholesterol, 7β-hydroxycholesterol, and oxidized 7-dehydrocholesterol (oxy-7DHC). After 1 hr at 37° C., ^125I-TGF-β1 affinity labeling of TGF-β receptors was performed. ^125I-TGF-β1 affinity-labeled TβR-I and TβR-II were analyzed by 7.5% SDS-PAGE and autoradiography. The bracket indicates the locations of ^125I-TGF-β1-affinity-labeled TβR-I and TβR-II. The relative intensities of ^125I-TGF-β1 affinity-labeled TβR-I and TβR-II were determined by a PhosphoImager. The ratios of ^125I-TGF-β1 binding to TβR-II and TβR-I were estimated. The numbers above the lane sequence denote the ratio of TβR-II/TβR-I.
After cross-linking, cell lysates were analyzed by 7.5% SDS-PAGE and autoradiography or quantified by a PhosphoImager. For all experiments, cholesterol or cholesterol derivatives were prepared as the stock solution with a concentration of 25 mg/ml in ethanol. The final concentration of ethanol in the medium was 0.2% (by vol.).

[2] = tested on: TβR-II; assay: TGF-β1-induced degradation of TβR-II, Western blot; type: cell-based; conditions: 1% β-CD
Procedure: (E) Cells were treated with several concentrations of cholesterol (a,b) or LDL (c,d) as indicated in the presence and absence of 1% β-CD at 37° C. for 1 hr and further incubated with 50 pM TGF-β for 1 hr. The cell lysates were then subjected to 7.5% SDS-PAGE and Western blot analysis using antibodies to TβR-II and α-actin (a,c). The relative intensities of TβR-II and α-actin on the blot were quantified by densitometry (b,d). The ratio of the relative intensities of TβR-II and α-actin in cells treated without TGF-β1 was taken as the 100% level of TβR-II.
(F, G) Cells were treated with or without 1 μM lovastatin/fluvastatin or nystatin (25 μg/ml)/cholesterol (50 μg/ml) at 37° C. for 16 hr or 1 hr, respectively. The treated cells were directly analyzed by sucrose density gradient ultracentrifugation analysis (F) or further incubated with 50 pM TGF-β at 37° C. for several time periods as indicated (G). Western blot analysis of the sucrose density gradient fractions (F) and of TGF-β1-treated cell lysates (G) was performed using antibody to TβR-II. The relative levels of TβR-II and α-actin were quantified by densitometry. Fractions ⅘ and 7 represent lipid raft/caveolae and non-lipid raft fractions, respectively. […] The quantitative data from three independent analyses is shown (G, bottom). […]
Cells grown to near confluence on 12-well cluster dishes were treated with cholesterol or LDL in serum-free DMEM (vol.=0.5 ml/well) at 37° C. for 1 hr. […] Treated cells were lysed and cell lysates were analyzed by 7.5% SDS-PAGE and Western blot analysis using anti-Smad2, anti-P-Smad2, anti-caveolin-1, anti-TβR-I (alk5) or anti-TβR-II antibodies as described previously (30). […]
Lipid raft/caveolae-mediated endocytosis of receptor-bound TGF-β results in rapid degradation of TGF-β1 and suppression of TGF-β responsiveness. […] To test this, we analyzed the lipid raft/caveolae and non-lipid raft localization of TβR-I and TβR-II in the plasma membrane of cells treated with or without cholesterol (50 μg/ml) using sucrose density gradient ultracentrifugation analysis. […]

[3] = tested on: Mv1Lu cells; assay: [Methyl-3H]thymidine incorporation (DNA synthesis), Mv1Lu cells; type: cell-based, mink; conditions: 18 hr
Procedure: (A, B, C, D, E, F) Cells were treated with 50 μg/ml cholesterol (A, B, C, D) and 50 μg/ml LDL (D) at 37° C. for 1 hr or with 1 μM fluvastatin or lovastatin (E) or several concentrations of fluvastatin (F) at 37° C. for 16 hr and then further incubated with increasing concentrations (as indicated) of TGF-β1 (A, B, C, E) or 50 pM TGF-β1 (D,F) for 2 hr. Northern blot analysis of PAI-1 and G3PDH was performed. A representative of a total of three analyses is shown (a). The relative intensities of the transcripts were quantified with a PhosphoImager. The ratio of the relative intensities of PAI-1 and G3PDH transcripts in cells treated without TGF-β1 and cholesterol, LDL or statins on the blot was taken as 1 fold or 100% of PAI-1 expression. The quantitative data from three independent analyses is shown (b). […] (G) Mv1Lu cells stably expressing a luciferase reporter gene driven by the PAI-1 promoter (MLECs-clone 32) were treated with increasing concentrations (as indicated) of cholesterol at 37 EC for 1 hr (a) or with 1 μM lovastatin at 37° C. for 16 hr (b) and then further incubated with 50 pM TGF-β for 7 hr. The luciferase activity in cells treated without cholesterol was taken as 100% (a). […] (H) Cells were incubated with 0.0625 and 0.125 pM TGF-β1 in the presence of increasing concentrations of cholesterol, as indicated. After 18 hr at 37° C., cell growth was determined by measurement of [^3H-methyl]thymidine incorporation into cellular DNA (a). The [^3H-methyl]thymidine incorporation in cells treated with vehicle only (T1); with TGF-β1 (T2); with cholesterol (T3); with cholesterol and TGF-β1 (T4) was measured. T1 was taken as 100%. The degree (%) of cholesterol-mediated reversal of TGF-β1 growth inhibition was estimated by the equation: % reversal=[1−(T3−T4/T1−T2)]×100 Cholesterol appeared to reverse TGF-β1 growth inhibition in a dose-dependent manner (b). The experiments were carried out in triplicate.
The growth of cholesterol-treated cells was determined by measurement of [methyl-^3H]thymidine incorporation into cellular DNA as described (30). Briefly, cells grown near confluence on 48-well clustered dishes were treated with several concentrations of cholesterol at 37° C. for 1 hr in serum-free DMEM. The final concentration of ethanol (the vehicle for cholesterol) in the medium was 0.2%. […] The [methyl-^3H]thymidine incorporation into cellular DNA was then determined by incubation of cells with [methyl-^3H]thymidine at 37° C. for 2 hr in DMEM containing 0.1% fetal calf serum. […]
Another prominent biological activity of TGF-β is growth inhibition of many different cell types. […] DNA synthesis was then determined by measurement of [^3H-methyl]thymidine incorporation into cellular DNA (FIG. 2Ha). […]

| Molecule | effect on the LDL- or cholesterol-induced increase of 125I-TGF-β1 binding to TβR-I [1] | effect on the cholesterol-enhanced TGF-β1-induced degradation of TβR-II [2] | half-maximum concentrations of binding to TβR-I and TβR-II ([1]; Mv1Lu cells treated with and without cholesterol, 0° C. 2.5 hr) | Kd ([1]; stated identical to the half-maximum concentration, read-out: apparent Kd of binding to the TGF-β receptors) | inhibition of DNA synthesis ([3]; 0.0625 pM) | inhibition of DNA synthesis ([3]; 0.125 pM) |
| --- | --- | --- | --- | --- | --- | --- |
| CC(C)CCC[C@@H](C)[C@H]1CC[C@H]2[C@@H]3CCC4=CC(=O)CC[C@]4(C)[C@H]3CC[C@]12C [4-cholesten-3-one, reference compound] | abolished |  |  |  |  |  |
| OC[C@H]1O[C@@H]2O[C@H]3[C@H](O)[C@@H](O)[C@@H](O[C@H]4[C@H](O)[C@@H](O)[C@@H](O[C@H]5[C@H](O)[C@@H](O)[C@@H](O[C@H]6[C@H](O)[C@@H](O)[C@@H](O[C@H]7[C@H](O)[C@@H](O)[C@@H](O[C@H]8[C@H](O)[C@@H](O)[C@@H](O[C@H]1[C@H](O)[C@H]2O)O[C@@H]8CO)O[C@@H]7CO)O[C@@H]6CO)O[C@@H]5CO)O[C@@H]4CO)O[C@@H]3CO [β-CD, β-cyclodextrin, reference compound] | abolished | abolished |  |  |  |  |
| TGF-β1: transforming growth factor-beta 1, 25-kDa dimeric cytokine; also used 125I-labelled |  |  | 50 to 80 pM | 0.05 to 0.08 nM | ~30% | ~40% |
